Experimental data published in ChEMBL document CHEMBL5131381, “Design, synthesis, and mechanistic investigations of phenylalanine derivatives containing a benzothiazole moiety as HIV-1 capsid inhibitors with improved metabolic stability” (Eur J Med Chem, 2022).
Active and inactive are the calls of the source. No cut-off for these calls is given here.

How the values were obtained:
MT4 = assay: Cytotoxicity against mock infected human MT4 cells by MTT assay; assay type: toxicity, cell-based
[1] = test system: Human immunodeficiency virus 1; assay: Antiviral activity against HIV-1 3B infected in human MT4 cells assessed as protection against virus-induced cytopathic effect by MTT assay; assay type: functional, organism-based; conditions: Human immunodeficiency virus 1, 3B
in vitro = conditions: human, liver microsomes
[2] = Metabolic stability in human plasma assessed as parent compound remaining measured after 120 mins by LC-MS/MS analysis; assay type: ADME, cell-free; conditions: 2 h
[3] = test system: Human immunodeficiency virus 1; assay: Antiviral activity against HIV-1 NL4-3 Env-deficient pseudotype virus infected in U87/CD4/CCR5 cells assessed as reduction in viral infection in late stage measured after 48 hrs by luciferase activity based single-round infection assay; assay type: functional, organism-based
[4] = test system: Human immunodeficiency virus 1; assay: Antiviral activity against HIV-1 NL4-3 Env-deficient pseudotype virus infected in U87/CD4/CCR5 cells assessed as reduction in viral infection in early stage measured after 48 hrs by luciferase activity based single-round infection assay; assay type: functional, organism-based

## CN(C(=O)[C@H](Cc1ccccc1)NC(=O)c1cccc(C(=O)Nc2ccc(C(F)(F)F)cc2)c1)c1ccc2scnc2c1
MT4
  CC50: 88.2 µM
[1]
  EC50: ≥ 39.5 µM

## CN(C(=O)[C@H](Cc1ccccc1)NC(=O)c1cccc(C(=O)Nc2ccc(C#N)cc2)c1)c1ccc2scnc2c1
MT4
  CC50: > 224 µM
[1]
  EC50: 13.2 µM

## CN(C(=O)[C@H](Cc1ccccc1)NC(=O)c1cccc(C(=O)Nc2ccncc2)c1)c1ccc2scnc2c1
MT4
  CC50: 37.6 µM
[1]
  EC50: ≥ 41.4 µM

## C[C@]12CC[C@H]3[C@@H](CCC4=CC(=O)CC[C@@]43C)[C@@H]1CC[C@@H]2O [TESTOSTERONE]
In vitro
  microsomal CLint: 82.8 µL/min/mg

## C#CCNC(=O)c1cccc(C(=O)N[C@@H](Cc2ccccc2)C(=O)N(C)c2ccc3scnc3c2)c1
[2]
  Stability: Stable
[1]
  EC50: 5.02 µM

## CN(C(=O)[C@H](Cc1ccccc1)NC(=O)c1cccc(C(=O)N2CCN(C(=O)OC(C)(C)C)CC2)c1)c1ccc2scnc2c1
MT4
  CC50: 93.9 µM
[1]
  EC50: 13.5 µM

## CN(C(=O)[C@H](Cc1ccccc1)NC(=O)c1cccc(C(=O)Nc2ccccc2)c1)c1ccc2scnc2c1
MT4
  CC50: > 234 µM
[1]
  EC50: 22.4 µM

## CN(C(=O)[C@H](Cc1ccccc1)NC(=O)c1cccc(C(=O)Nc2ccc(Br)cc2)c1)c1ccc2scnc2c1
MT4
  CC50: > 204 µM
[1]
  EC50: ≥ 186 µM

## CN(C(=O)[C@H](Cc1ccccc1)NC(=O)c1cccc(C(=O)Nc2ccccc2F)c1)c1ccc2scnc2c1
MT4
  CC50: 66.4 µM
[1]
  EC50: 21.9 µM

## CN(C(=O)[C@H](Cc1ccccc1)NC(=O)c1cccc(C(=O)Nc2cccc(N)c2)c1)c1ccc2scnc2c1
MT4
  CC50: 134 µM
[1]
  EC50: 23.7 µM

## COCCNC(=O)c1cccc(C(=O)N[C@@H](Cc2ccccc2)C(=O)N(C)c2ccc3scnc3c2)c1
MT4
  CC50: 203 µM
[1]
  EC50: 15.7 µM

## CC(=O)c1ccc(NC(=O)c2cccc(C(=O)N[C@@H](Cc3ccccc3)C(=O)N(C)c3ccc4scnc4c3)c2)cc1
MT4
  CC50: 165 µM
[1]
  EC50: > 165 µM

## CN(C(=O)[C@H](Cc1ccccc1)NC(=O)c1cccc(C(=O)Nc2cccc(NC(=O)OC(C)(C)C)c2)c1)c1ccc2scnc2c1
MT4
  CC50: > 193 µM
[1]
  EC50: > 193 µM

## CN(C(=O)[C@H](Cc1ccccc1)NC(=O)c1cccc(C(=O)Nc2ccc(OC(F)(F)F)cc2)c1)c1ccc2scnc2c1
MT4
  CC50: 118 µM
[1]
  EC50: 34.9 µM

## CN(C(=O)[C@H](Cc1ccccc1)NC(=O)c1cccc(C(=O)Nc2ccccc2N)c1)c1ccc2scnc2c1
MT4
  CC50: 25.4 µM
[1]
  EC50: > 25.4 µM

## CN(C(=O)[C@H](Cc1ccccc1)NC(=O)c1cccc(C(=O)NC2CCN(C(=O)OC(C)(C)C)CC2)c1)c1ccc2scnc2c1
MT4
  CC50: 29.3 µM
[1]
  EC50: > 29.3 µM

## CN(C(=O)[C@H](Cc1ccccc1)NC(=O)c1cccc(C(=O)Nc2cccc(F)c2)c1)c1ccc2scnc2c1
MT4
  CC50: > 226 µM
[1]
  EC50: > 226 µM

## CN(C(=O)[C@H](Cc1ccccc1)NC(=O)c1cccc(C(=O)Nc2ccc(N)cc2)c1)c1ccc2scnc2c1
[3]
  Activity: Active
[2]
  Stability: Stable
[1]
  EC50: 3.57 µM
[4]
  Activity: Active

## O=C(O)Cc1ccccc1Nc1c(Cl)cccc1Cl [DICLOFENAC]
In vitro
  microsomal CLint: 372 µL/min/mg

## CN(C(=O)[C@H](Cc1ccccc1)NC(=O)c1cccc(C(=O)Nc2ccccc2NC(=O)OC(C)(C)C)c1)c1ccc2scnc2c1
MT4
  CC50: > 193 µM

## CN(C(=O)[C@H](Cc1ccccc1)NC(=O)c1cccc(C(=O)Nc2ccc(NC(=O)OC(C)(C)C)cc2)c1)c1ccc2scnc2c1
MT4
  CC50: 2.23 µM
[1]
  EC50: > 2.23 µM

## CN(C(=O)[C@H](Cc1ccccc1)NC(=O)c1cccc(C(=O)Nc2ccc(F)cc2)c1)c1ccc2scnc2c1
MT4
  CC50: 54 µM
[1]
  EC50: 31.8 µM

## COc1ccc(NC(=O)c2cccc(C(=O)N[C@@H](Cc3ccccc3)C(=O)N(C)c3ccc4scnc4c3)c2)cc1
MT4
  CC50: > 222 µM
[1]
  EC50: ≥ 205 µM

## CN(C(=O)[C@H](Cc1ccccc1)NC(=O)c1cccc(C(=O)Nc2ccc(Cl)cc2)c1)c1ccc2scnc2c1
MT4
  CC50: > 220 µM
[1]
  EC50: > 220 µM

## Cc1ccc(NC(=O)c2cccc(C(=O)N[C@@H](Cc3ccccc3)C(=O)N(C)c3ccc4scnc4c3)c2)cc1
MT4
  CC50: > 228 µM
[1]
  EC50: 41.1 µM
